The subject of data set [1] is PLP injected animals (acute EAE, model for MS). The data set is described as follows: Acute EAE induced with PLP 139-151, clinical signs scoring. The data set is classed as in vivo, SJL female mice.
For the next data set, the system named is PC12 neurons. Briefly: MPP+ toxicity experiment, LDH leakage assay in NGF-differentiated PC12 cells. The data set is classed as cell-based. As to the method: PC12 cells were grown in Dulbecco's modified Eagle's medium (DMEM), supplemented with 7% fetal calf serum, 7% horse serum, 100 μg/ml streptomycin, and 100 U/ml penicillin. The cultures were maintained in an incubator at 37° C. in a humidified atmosphere of 6% CO2. The growth medium was changed twice weekly and the cultures were split at 1:6 ratio once a week [Abu-Raya et al. J. Neurosci. Methods 50:197-203 (1993)].
For differentiation, an identical number of PC12 cells (3.75×10^5 cells) was plated on 6-wells plates coated with rat tail type I collagen (0.1 mg/ml) to promote cell adhesion [Abu-Raya et al Rasagiline, a monoamine oxidase-B inhibitor, protects NGF-differentiated PC12 cells against oxygen-glucose deprivation. J. Neurosci. Res. 58:456-463 (1999)]. The differentiation of the cultures was induced by treatment with NGF (50 ng/ml), added every 48 hr for a period of 7-8 days.
Cell death was evaluated by measuring the leakage of LDH into the growth medium as previously described [Abu-Raya et al. J. Neurosci. Res. 58:456-463, (1999)]. Samples of 50 μl of the growth medium were collected from each well and centrifuged at 3,500 rpm for 5 min at 25° C.; the supernatant was collected and LDH release was measured using a TRACE LD-L reagent. LDH activity was determined using an ELISA reader (TECAN, SPECTRAFluor PLUS, Grodig, Salzburg, Austria) at 340 nm by following the rate of conversion of oxidized nicotinamide adenine dinucleotide (NAD^+) to the reduced form of (NADH). MPP^+-induced LDH release was expressed as 100% of toxicity compared to control-untreated cultures. Each experiment was performed three times in duplicates (n=6).
On the day of the experiment, the NGF containing medium was replaced with fresh one. […]
MPP^+ was dissolved in growth medium containing NGF and added to each well in a final concentration of 1500 μM. […] The experiment was accomplished when percentage of cell death was in the range 30-60%, measured by the release of LDH into the medium. […]
A general note: LDH leaks from cells whose membrane has failed.

Turning to `CC1(C)CC(N)CC(C)(C)N1[O]` [TMN, 2,2,6,6-tetramethylpiperidine-4-amino-1-oxyl], the “effect on clinical signs of MS, in words” value in data set [1] (SSL-TMN i.v., 80 nm, compared with Copaxone, Betaferon, empty SSL, free TMN, FIG. 2) was “no observed effect against the disease”. Moreover, in data set [1] (Table 4B), the “#dead” value is reported as 1, the MDD worked out at 19 ± 1.2, the MDO turned out to be 14 ± 0.5 and the MMS came to 3.9 ± 0.53. This compound also came in with a Mean score in data set [1] (Table 4B) of 3.5 ± 0.21. Moreover, the Incidence in data set [1] (Table 4B, free TMN at same concentration as encapsulated in the liposomes) was 5/5. Further, the “toxicity to the cells at higher concentration (bell shape)” value with PC12 neurons (500 μM-1000 μM TMN) is given as “toxic to the cells”. In the data set with PC12 neurons (1500 μM MPP+, TMN 0.1-100 μM added 1 hr before, LDH after 48 hr, FIG. 1), the “protection of PC12 neurons from oxidative damage inflicted by MPP+ (LDH release)” value is “protects PC12 neurons from oxidative damage”. Also, the “most effective TMN concentration for protection against MPP+” value in the data set on PC12 neurons (1500 μM MPP+, dose response 0.1-1000 μM) stood at 100 µM.
